pIC50: −log10 of the molar value.
Columns and labels:
Test in all cases: CellTiter-Glo in vitro cell proliferation assay, Example 8
Type in all cases: cell-based, Human
A2780CP cells = settings: Ovarian, read-out: Mean IC50
Protocol: (§1) In this Example, in vitro cell proliferation assays were performed using: (1) Human Myeloma tumor cell lines; (2) Human Lymphoma tumor cell lines; (3) Solid Human tumor cell lines; and (4) Parental, Lenalidomide resistant and Bortezomib resistant Jeko-1 Mantle cell Lymphoma tumor cell lines. The compounds tested were three diharmaline compounds, namely the 518B562 (or simply 562), 560, and 561 compounds. In addition, a monoharmaline product designated as 518F014 was also tested. This monoharmaline product had the following structure:
(§2) Each proliferation assay was carried out as follows. The test cells were plated in growth media using a 384-well microtiter plate at 50 μL volume. The cells were incubated for 24 hours at 37° C. in a humidified incubator. After 24 hours of incubation, the test compounds were added to the test wells in DSMO solvent, at concentrations ranging from 0.0075-100 μM. Control wells received equal volumes of DSMO, without compound. Following drugging, the cells were incubated for 72 hours at 37° C. in a humidified incubator. After this exposure, 100 μL of a 1:1 mixture of sterile water and CellTiter-Glo® reagent (Promega) was added to each well. The plates were then incubated for 60 minutes at room temperature, followed by recording the luminescence value of each well using a luminometer as a measure of cell proliferation.

KMM-1 cells = settings: KMM-1, HMCL-A; read-out: Mean IC50
Protocol: as §1, §2

ASPC-1 cells = settings: ASPC-1, Pancreatic; read-out: Mean IC50
Protocol: as §1, §2

HEC-1a cells = settings: Endometrial, read-out: Mean IC50
Protocol: as §1, §2

H1650 (EGFR mut) cells = settings: NSCLC, read-out: Mean IC50
Protocol: as §1, §2

BxPC-3 cells = settings: BxPC-3, Pancreatic; read-out: Mean IC50
Protocol: as §1, §2

AN3CA cells = settings: Endometrial, read-out: Mean IC50
Protocol: as §1, §2

MDA-MB-468 cells = settings: MDA-MB-468, TNBC; read-out: Mean IC50
Protocol: as §1, §2

HCC70 cells = settings: HCC70, TNBC; read-out: Mean IC50
Protocol: as §1, §2

A498 cells = settings: A498, RCC; read-out: Mean IC50
Protocol: as §1, §2

JIM1 cells = settings: JIM1, HMCL; read-out: Mean IC50
Protocol: as §1, §2

DOHH-2 cells = settings: DoHH-2, GCB-DLBCL; read-out: Mean IC50
Protocol: as §1, §2

A2780 cells = settings: A2780, Ovarian; read-out: Mean IC50
Protocol: as §1, §2

H1975 (EGFR mut) cells = settings: NSCLC, read-out: Mean IC50
Protocol: as §1, §2

MDA-MB-231 cells = settings: MDA-MB-231, TNBC; read-out: Mean IC50
Protocol: as §1, §2

FaDu cells = settings: H&N - SC, read-out: Mean IC50
Protocol: as §1, §2

MOLP-8 cells = settings: MOLP-8, MM IgD; read-out: Mean IC50
Protocol: as §1, §2

MIA PaCa-2 cells = settings: MIA PaCa-2, Pancreatic; read-out: Mean IC50
Protocol: as §1, §2

L363 cells = settings: L363, PCL/MM; read-out: Mean IC50
Protocol: as §1, §2

OCI-LY3 cells = settings: OCI-LY3, ABC-DLBCL; read-out: Mean IC50
Protocol: as §1, §2

KMS-34 cells = settings: KMS-34, HMCL-B; read-out: Mean IC50
Protocol: as §1, §2

RPMI-8226 cells = settings: RPMI-8226, HMM
Protocol: as §2
In this example, different cell lines were subjected to in vitro cell proliferation assays as described in Example 8. In particular, the cell lines are identified in the following Table 17, and the tissue types were: Pancreatic; Endometrial; Triple-Negative Breast Cancer (TNBC); Non-Small-Cell Lung Carcinoma (NSCLC); Ovarian; Renal Cell Carcinoma (RCC); Cervical-Squamous Cell; […] (H&N-Squamous Cell); Germinal Center B Cell-Like Novo Diffuse Large B-Cell Lymphoma (GCB-DLBCL); Activated B-Cell—Diffuse Large B Cell Lymphoma (ABC-DLBCL); Human Myeloma; Human Myeloma Cell Line Lymphocyte-Like; Human Myeloma Cell Line Lymphocyte-Like Myeloma Pleural Effusion Infiltration; Human Multiple Myeloma; Plasma Cell Leukemia/Multiple Myeloma Epstein-Barr Nuclear Antigen-Negative (EBNA-Negative) and to Express mRNA for Proto-Oncogene B-Cell Lymphoma 2 (BCL2); Multiple Myeloma from Peripheral Blood Type IgD Lmabda.

SiHA cells = settings: Cervical - SC, read-out: Mean IC50
Protocol: as §1, §2

COc1ccc2c3c([nH]c2c1)C(CC(CC1=NCCc2c1[nH]c1cc(OC)ccc21)c1ccc(OC)c(O)c1Br)=NCC3 [compound 13]
pIC50 (A2780CP cells): 4.63
pIC50 (KMM-1 cells): 4.88
pIC50 (ASPC-1 cells): 4.08
pIC50 (HEC-1a cells): 4.76
pIC50 (H1650 (EGFR mut) cells): 4.67
pIC50 (BxPC-3 cells): 4.78
pIC50 (AN3CA cells): 5.11
pIC50 (MDA-MB-468 cells): 4.90
pIC50 (HCC70 cells): 4.55
pIC50 (A498 cells): 4.04
pIC50 (JIM1 cells): 4.94
pIC50 (DOHH-2 cells): 5.19
pIC50 (A2780 cells): 4.93
pIC50 (H1975 (EGFR mut) cells): 4.85
pIC50 (MDA-MB-231 cells): 4.59
pIC50 (FaDu cells): 4.87
pIC50 (MOLP-8 cells): 4.96
pIC50 (MIA PaCa-2 cells): 4.80
pIC50 (L363 cells): 4.89
pIC50 (OCI-LY3 cells): 4.93
pIC50 (KMS-34 cells): 4.95
pIC50 (RPMI-8226 cells): 5.04

COc1ccc2c3c([nH]c2c1)C(CC(CC1=NCCc2c1[nH]c1cc(OC)ccc21)c1ccc(OC)c(Oc2ccccc2)c1)=NCC3 [compound 10]
pIC50 (A2780CP cells): 4.53
pIC50 (KMM-1 cells): 4.96
pIC50 (ASPC-1 cells): 4.62
pIC50 (HEC-1a cells): 4.05
pIC50 (H1650 (EGFR mut) cells): 4.88
pIC50 (BxPC-3 cells): 4.56
pIC50 (AN3CA cells): 4.50
pIC50 (MDA-MB-468 cells): 4.94
pIC50 (HCC70 cells): 4.30
pIC50 (A498 cells): 4.10
pIC50 (JIM1 cells): 4.70
pIC50 (DOHH-2 cells): 5.56
pIC50 (A2780 cells): 4.19
pIC50 (H1975 (EGFR mut) cells): 4.19
pIC50 (MDA-MB-231 cells): 4.36
pIC50 (FaDu cells): 4.30
pIC50 (MOLP-8 cells): 5.08
pIC50 (MIA PaCa-2 cells): 4.93
pIC50 (L363 cells): 4.45
pIC50 (OCI-LY3 cells): 5.12
pIC50 (KMS-34 cells): 5.31
pIC50 (RPMI-8226 cells): 5.40

COc1ccc2c3c([nH]c2c1)C(CC(CC1=NCCc2c1[nH]c1cc(OC)ccc21)c1cc(Cl)c(O)c(OC)c1)=NCC3 [compound 9]
pIC50 (A2780CP cells): 4.22
pIC50 (KMM-1 cells): 4.80
pIC50 (ASPC-1 cells): 4.15
pIC50 (HEC-1a cells): 4.02
pIC50 (H1650 (EGFR mut) cells): 4.10
pIC50 (BxPC-3 cells): 4.52
pIC50 (AN3CA cells): 4.53
pIC50 (MDA-MB-468 cells): 4.90
pIC50 (HCC70 cells): 4.41
pIC50 (JIM1 cells): 4.39
pIC50 (DOHH-2 cells): 5.01
pIC50 (A2780 cells): 4.45
pIC50 (H1975 (EGFR mut) cells): 4.26
pIC50 (MDA-MB-231 cells): 4.34
pIC50 (FaDu cells): 4.14
pIC50 (MOLP-8 cells): 5.18
pIC50 (MIA PaCa-2 cells): 4.28
pIC50 (L363 cells): 4.70
pIC50 (OCI-LY3 cells): 4.92
pIC50 (KMS-34 cells): 4.94
pIC50 (RPMI-8226 cells): 4.94

COc1ccc2c3c([nH]c2c1)C(CC(CC1=NCCc2c1[nH]c1cc(OC)ccc21)c1ccc(OC(C)=O)c(OC)c1)=NCC3 [compound 6]
pIC50 (A2780CP cells): 4.15
pIC50 (KMM-1 cells): 4.77
pIC50 (SiHA cells): 4.13
pIC50 (BxPC-3 cells): 4.80
pIC50 (AN3CA cells): 4.67
pIC50 (MDA-MB-468 cells): 4.84
pIC50 (JIM1 cells): 4.74
pIC50 (DOHH-2 cells): 5.16
pIC50 (MDA-MB-231 cells): 4.22
pIC50 (FaDu cells): 4.80
pIC50 (MOLP-8 cells): 4.94
pIC50 (MIA PaCa-2 cells): 4.87
pIC50 (L363 cells): 4.79
pIC50 (OCI-LY3 cells): 4.95
pIC50 (KMS-34 cells): 4.96
pIC50 (RPMI-8226 cells): 4.99

C=C(C)C1CC=C(C(CC2=NCCc3c2[nH]c2cc(OC)ccc32)CC2=NCCc3c2[nH]c2cc(OC)ccc32)CC1 (stereo not drawn) [compound 28]
pIC50 (A2780CP cells): 5.15
pIC50 (KMM-1 cells): 5.19
pIC50 (ASPC-1 cells): 5.14
pIC50 (HEC-1a cells): 4.98
pIC50 (H1650 (EGFR mut) cells): 4.95
pIC50 (SiHA cells): 4.88
pIC50 (BxPC-3 cells): 5.18
pIC50 (AN3CA cells): 5.35
pIC50 (MDA-MB-468 cells): 5.07
pIC50 (HCC70 cells): 4.92
pIC50 (A498 cells): 4.79
pIC50 (JIM1 cells): 5.09
pIC50 (DOHH-2 cells): 5.60
pIC50 (MDA-MB-231 cells): 4.99
pIC50 (FaDu cells): 5.25
pIC50 (MOLP-8 cells): 5.43
pIC50 (MIA PaCa-2 cells): 5.35
pIC50 (L363 cells): 5.32
pIC50 (OCI-LY3 cells): 5.21
pIC50 (KMS-34 cells): 5.35
pIC50 (RPMI-8226 cells): 5.46
